Among the data in patent publication US12691095B2, “Modulators of TNF-alpha activity” (Forward Therapeutics, Inc., priority 2024, dated 2026) are IC50 values, retold here.

The target in one assay is T1, TNF-α (Homo sapiens, UniProt P01375).
T1 construct: purchased R&D 210-TA-020/CF
T1 sequence (P01375 77-233 limits assumed): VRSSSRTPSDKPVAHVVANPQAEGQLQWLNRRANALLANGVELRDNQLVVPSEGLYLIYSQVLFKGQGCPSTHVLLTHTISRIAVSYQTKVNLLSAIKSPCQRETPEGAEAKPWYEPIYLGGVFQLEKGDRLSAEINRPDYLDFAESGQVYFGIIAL
Nature of the assay: TNF-α Induced HEK Blue Cellular Assay. It is filed as cell-based. As to conditions: HEK Blue TNFα reporter cells stimulated with TNF-α, 24 hrs, secreted alkaline phosphatase (QUANTI-Blue, 620 nm). The protocol:
(§1) Test articles were diluted in DMSO and serially diluted into 384 well assay plate (Corning 3765), at final concentrations ranging from […] to 0.5 nM. HEK Blue™ TNFα reporter cells were added at a final density of 10,000 cell per well in assay media [DMEM (Gibco, cat #21063-029), 10% fetal bovine serum (ExcelBio, cat #FND500), 1% Penicillin-Streptomycin (Solarbio, cat #P1400-100]. TNF-α (R&D 210-TA-020/CF) was then added to the assay plate at a final concentration of […]. This plate was then incubated for 24 hrs at 37° C. and 5% CO2. Secreted alkaline phosphatase expression was then measured using QUANTI- Blue™ (Invivogen), according to manufacturer instructions and read on an Envision microplate reader at 620 nm.
Inhibition data for test compound over a range of concentration was plotted as percentage inhibition of the test compound (100%=maximum inhibition). IC50 values were determined after correcting for background [(sample read-mean of low control)/(mean of high control-mean of low control)] where by the low control is DMSO without stimulation and high control is DMSO with stimulation. The IC50 is defined as the concentration of test compound which produces 50% inhibition and was quantified using the 4 parameter logistic equation to fit the data.
In the case of `[2H]C([2H])([2H])N1C(=O)c2cccc(Cl)c2[C@H]2C[C@@H]1c1nc3ccc(-c4ccc(P(C)(C)=O)nc4)cc3n12` [Example 2, (7R,14R)-1-chloro-11-(6-(dimethylphosphoryl)pyridin-3-yl)-6-(methyl-d3)-6,7-dihydro-7,14-methanobenzo[f]benzo[4,5]imidazo[1,2-a][1,4]diazocin-5(14H)-one], the IC50 (usually the concentration that gives 50% inhibition) is no more than 100 nM. On to `CP(C)(=O)c1ncc(-c2ccc3nc4n(c3c2)[C@@H]2C[C@H]4NC(=O)c3cccc(Cl)c32)cn1` [Example 4, (7R,14R)-1-chloro-11-(2-(dimethylphosphoryl)pyrimidin-5-yl)-6,7-dihydro-7,14-methanobenzo[f]benzo[4,5]imidazo[1,2-a][1,4]diazocin-5(14H)-one], for which the half-inhibitory concentration (IC50) is no more than 100 nM. On the same count and under the same terms, to `CCN1C(=O)c2cccc(Cl)c2[C@H]2C[C@@H]1c1nc3ccc(-c4ccc(P(C)(C)=O)c(F)c4)cc3n12` [Example 11, (7R,14R)-1-chloro-11-(4-(dimethylphosphoryl)-3-fluorophenyl)-6-ethyl-6,7-dihydro-7,14-methanobenzo[f]benzo[4,5]imidazo[1,2-a][1,4]diazocin-5(14H)-one] belongs no more than 100 nM. Still for that read-out and setting: to `[2H]C([2H])([2H])N1C(=O)c2cccc(F)c2[C@H]2C[C@@H]1c1nc3ccc(-c4ccc(P(C)(C)=O)c(F)c4)cc3n12` [Example 9, (7R,14R)-11-(4-(dimethylphosphoryl)-3-fluorophenyl)-1-fluoro-6-(methyl-d3)-6,7-dihydro-7,14-methanobenzo[f]benzo[4,5]imidazo[1,2-a][1,4]diazocin-5(14H)-one] belongs no more than 100 nM.

For the next assay, the target named is T1, TNF-α. The experiment in a line: TNF-α Induced THP 1 dual Cellular Assay. As to conditions: THP1 dual cell reporter cells stimulated with TNF-α, 24 hrs, secreted alkaline phosphatase (QUANTI-Blue, 620 nm). It is filed as cell-based. The method, then: as §1, with “THP1 dual cell” for “HEK Blue™ TNFα”, “QUANTI-Blue™” for “QUANTI- Blue™”
Inhibition data for test compound over a range of concentration was plotted as percentage inhibition of the test compound (100%=maximum inhibition). IC50 values were determined after correcting for background [(sample read-mean of low control)/(mean of high control-mean of low control)] whereby the low control is DMSO without stimulation and high control is DMSO with stimulation. The IC50 is defined as the concentration of test compound which produces 50% inhibition and was quantified using the 4-parameter logistic equation to fit the data.
Take `[2H]C([2H])([2H])N1C(=O)c2cccc(F)c2[C@H]2C[C@@H]1c1nc3ccc(-c4ccc(P(C)(C)=O)cc4F)cc3n12` [Example 17, (7R,14R)-11-(4-(dimethylphosphoryl)-2-fluorophenyl)-1-fluoro-6-(methyl-d3)-6,7-dihydro-7,14-methanobenzo[f]benzo[4,5]imidazo[1,2-a][1,4]diazocin-5(14H)-one]: the concentration for half-maximal inhibition (IC50) was no more than 100 nM. On the same count and under the same terms, then `[2H]C([2H])([2H])N1C(=O)c2cccc(F)c2[C@H]2C[C@]1(C)c1nc3ccc(-c4ccc(P(C)(C)=O)c(F)c4)cc3n12` [Example 22, (7R,14R)-11-(4-(dimethylphosphoryl)-3-fluorophenyl)-1-fluoro-7-methyl-6-(methyl-d3)-6,7-dihydro-7,14-methanobenzo[f]benzo[4,5]imidazo[1,2-a][1,4]diazocin-5(14H)-one], with no more than 100 nM; and `[2H]C([2H])([2H])N1C(=O)c2cccc(F)c2[C@H]2C[C@@H]1c1nc3cc(F)c(-c4ccc(P(C)(C)=O)cc4)cc3n12` [Example 20, (7R,14R)-11-(4-(dimethylphosphoryl)phenyl)-1,10-difluoro-6-(methyl-d3)-6,7-dihydro-7,14-methanobenzo[f]benzo[4,5]imidazo[1,2-a][1,4]diazocin-5(14H)-one], with no more than 100 nM; and `[2H]C([2H])([2H])N1C(=O)c2cccc(Br)c2[C@H]2C[C@@H]1c1nc3ccc(-c4ccc(P(C)(C)=O)c(F)c4)cc3n12` [Example 18, (7R,14R)-1-bromo-11-(4-(dimethylphosphoryl)-3-fluorophenyl)-6-(methyl-d3)-6,7-dihydro-7,14-methanobenzo[f]benzo[4,5]imidazo[1,2-a][1,4]diazocin-5(14H)-one], with no more than 100 nM. `[2H]C([2H])([2H])N1C(=O)c2cc(F)cc(F)c2[C@H]2C[C@@H]1c1nc3ccc(-c4ccc(P(C)(C)=O)c(F)c4)cc3n12` [Example 13, (7R,14R)-11-(4-(dimethylphosphoryl)-3-fluorophenyl)-1,3-difluoro-6-(methyl-d3)-6,7-dihydro-7,14-methanobenzo[f]benzo[4,5]imidazo[1,2-a][1,4]diazocin-5(14H)-one] registered an IC50 of no more than 100 nM. Same read-out and setting: to `[2H]C([2H])([2H])N1C(=O)c2cccc(F)c2[C@H]2C[C@@H]1c1nc3cc(F)c(-c4ccc(P(C)(C)=O)nc4)cc3n12` [Example 21, (7R,14R)-11-(6-(dimethylphosphoryl)pyridin-3-yl)-1,10-difluoro-6-(methyl-d3)-6,7-dihydro-7,14-methanobenzo[f]benzo[4,5]imidazo[1,2-a][1,4]diazocin-5(14H)-one] belongs no more than 100 nM. Consider `[2H]C([2H])([2H])N1C(=O)c2cccc(F)c2[C@H]2C[C@@H]1c1nc3cc(F)c(-c4ccc(P(C)(C)=O)c(F)c4)cc3n12` [Example 23, (7R,14R)-11-(4-(dimethylphosphoryl)-3-fluorophenyl)-1,10-difluoro-6-(methyl-d3)-6,7-dihydro-7,14-methanobenzo[f]benzo[4,5]imidazo[1,2-a][1,4]diazocin-5(14H)-one], for which the IC50 is no more than 100 nM. `[2H]C([2H])([2H])N1C(=O)c2cccc(F)c2[C@H]2C[C@@H]1c1nc3ccc(-c4ccc(P(C)(C)=O)c(NC)c4)cc3n12` [Example 25, (7R,14R)-11-(4-(dimethylphosphoryl)-3-(methylamino)phenyl)-1-fluoro-6-(methyl-d3)-6,7-dihydro-7,14-methanobenzo[f]benzo[4,5]imidazo[1,2-a][1,4]diazocin-5(14H)-one] gave an IC50 of no more than 100 nM. The compound `[2H]C([2H])([2H])N1C(=O)c2cccc(F)c2[C@H]2C[C@@H]1c1nc3ccc(-c4ccc(P(C)(C)=O)cc4)cc3n12` [Example 16, (7R,14R)-11-(4-(dimethylphosphoryl)phenyl)-1-fluoro-6-(methyl-d3)-6,7-dihydro-7,14-methanobenzo[f]benzo[4,5]imidazo[1,2-a][1,4]diazocin-5(14H)-one] showed an IC50 of no more than 100 nM. As to `[2H]C([2H])([2H])N1C(=O)c2cccc(F)c2[C@H]2C[C@@H]1c1nc3ccc(-c4ccc(P(C)(C)=O)c(N)c4)cc3n12` [Example 24, (7R,14R)-11-(3-amino-4-(dimethylphosphoryl)phenyl)-1-fluoro-6-(methyl-d3)-6,7-dihydro-7,14-methanobenzo[f]benzo[4,5]imidazo[1,2-a][1,4]diazocin-5(14H)-one], the IC50 was no more than 100 nM. The compound `[2H]C([2H])([2H])N1C(=O)c2cccc(Br)c2[C@H]2C[C@@H]1c1nc3ccc(-c4ccc(P(C)(C)=O)cc4F)cc3n12` [Example 19, (7R,14R)-1-bromo-11-(4-(dimethylphosphoryl)-2-fluorophenyl)-6-(methyl-d3)-6,7-dihydro-7,14-methanobenzo[f]benzo[4,5]imidazo[1,2-a][1,4]diazocin-5(14H)-one] came in with an IC50 of no more than 100 nM. As to `[2H]C([2H])([2H])N1C(=O)c2cccc(F)c2[C@H]2C[C@@H]1c1nc3ccc(-c4ccc(P(C)(C)=O)c(F)c4F)cc3n12` [Example 14, (7R,14R)-11-(4-(dimethylphosphoryl)-2,3-difluorophenyl)-1-fluoro-6-(methyl-d3)-6,7-dihydro-7,14-methanobenzo[f]benzo[4,5]imidazo[1,2-a][1,4]diazocin-5(14H)-one], the IC50 was no more than 100 nM. Regarding `[2H]C([2H])([2H])N1C(=O)c2ccc(F)c(F)c2[C@H]2C[C@@H]1c1nc3ccc(-c4ccc(P(C)(C)=O)c(F)c4)cc3n12` [Example 15, (7R,14R)-11-(4-(dimethylphosphoryl)-3-fluorophenyl)-1,2-difluoro-6-(methyl-d3)-6,7-dihydro-7,14-methanobenzo[f]benzo[4,5]imidazo[1,2-a][1,4]diazocin-5(14H)-one], the concentration for half-maximal inhibition (IC50) is no more than 100 nM.
